Data reported in PubChem BioAssay AID298 (DTP/NCI, 2004).
Where “and” joins values, the source holds several entries; their conditions need not be identical. Equal entries are not always repeated. Inconclusive results are not listed.

Test system: MX-1 breast xenograft, intrarenal, nude mice, tumor weight
Experiment: NCI In Vivo Anticancer Drug Screen. Data for tumor model Human Mammary Carcinoma MX-1 Xenograft (intrarenal inoculation) in NU/NU BALB/C (nude) mice
Settings: endpoint: mean tumor weight change, higher = larger tumour
How it was run: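 Mice w/ transplanted tumors, drug vs vehicle; endpoint survival or tumor size; value = T/C.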

[1] = dose: 75.0 mg/kg/injection, schedule: Q04DX003 (ip), vehicle: saline with Tween-80
[2] = dose: 150.0 mg/kg/injection, schedule: Q04DX003 (ip), vehicle: other
[3] = dose: 600.0 mg/kg/injection, schedule: Q04DX003 (ip), vehicle: other
[4] = dose: 1200.0 mg/kg/injection, schedule: Q04DX003 (ip), vehicle: other
[5] = dose: 7.5 mg/kg/injection, schedule: Q04DX003 (ip), vehicle: saline with Tween-80
[6] = dose: 100.0 mg/kg/injection, schedule: Q04DX003 (ip), vehicle: saline with Tween-80
[7] = dose: 200.0 mg/kg/injection, schedule: Q04DX003 (ip), vehicle: saline with Tween-80

Nc1ccc(C(=O)Nc2ccccc2N)cc1
T/C (dose: 25.0 mg/kg/injection, schedule: Q01DX010 (ip), vehicle: saline with Tween-80): 91 % of control
T/C (dose: 50.0 mg/kg/injection, schedule: Q01DX010 (ip), vehicle: saline with Tween-80): 87 % of control
T/C (dose: 100.0 mg/kg/injection, schedule: Q01DX010 (ip), vehicle: saline with Tween-80): 84 % of control
T/C (dose: 200.0 mg/kg/injection, schedule: Q01DX010 (ip), vehicle: saline with Tween-80): 36 % of control

COc1cc2c[n+](C)c3c(c2cc1OC)Cc1cc2c(cc1-3)OCO2
T/C [1]: 102 % of control
T/C (dose: 150.0 mg/kg/injection, schedule: Q04DX003 (ip), vehicle: saline with Tween-80): 35 % of control

CCOC(=O)c1c[nH]c2ccc3c(nc(C)n3C)c2c1=O
T/C (dose: 100.0 mg/kg/injection, schedule: Q04DX003 (ip), vehicle: Klucel (hydroxypropylcellulose) (HPC)): 122 % of control
T/C (dose: 200.0 mg/kg/injection, schedule: Q04DX003 (ip), vehicle: Klucel (hydroxypropylcellulose) (HPC)): 122 % of control
T/C (dose: 400.0 mg/kg/injection, schedule: Q04DX003 (ip), vehicle: Klucel (hydroxypropylcellulose) (HPC)): 94 % of control
T/C (dose: 800.0 mg/kg/injection, schedule: Q04DX003 (ip), vehicle: Klucel (hydroxypropylcellulose) (HPC)): 77 % of control

O=C(CN1CCOCC1)Nc1nc(-c2ccc(Cl)cc2)cs1
T/C [2]: 96 % of control
T/C [3]: 71 % of control
T/C [4]: 60 % of control

O=NNc1ccccn1
T/C (dose: 4.0 mg/kg/injection, schedule: Q01DX010 (sc), vehicle: saline): 124 % of control
T/C (dose: 16.0 mg/kg/injection, schedule: Q01DX010 (sc), vehicle: saline): 80 % of control
T/C (dose: 32.0 mg/kg/injection, schedule: Q01DX010 (sc), vehicle: saline): 14 % of control

CN(Cc1cnc2nc(N)nc(N)c2n1)c1ccc(C(=O)NC(CCC(=O)OCc2cc3c(cc2Cl)OCO3)C(=O)OCc2cc3c(cc2Cl)OCO3)cc1 (configuration not stated)
T/C [5]: 75 % of control

CC1=C(/C=C/C(C)=C/C=C/C(C)=C/C=O)C(C)(C)CCC1
T/C (dose: 150.0 mg/kg/injection, schedule: Q04DX003 (sc), vehicle: saline with Tween-80): 84 % of control
T/C (dose: 300.0 mg/kg/injection, schedule: Q04DX003 (sc), vehicle: saline with Tween-80): 39 % of control
T/C (dose: 600.0 mg/kg/injection, schedule: Q04DX003 (sc), vehicle: saline with Tween-80): 51 % of control
T/C (dose: 1200.0 mg/kg/injection, schedule: Q04DX003 (sc), vehicle: saline with Tween-80): 34 % of control

O=C1c2cccc(NCCCNCCO)c2C(=O)c2cccc(NCCCNCCO)c21
T/C (dose: 18.75 mg/kg/injection, schedule: Q04DX003 (ip), vehicle: acid diluted with saline): 89 % of control
T/C (dose: 37.5 mg/kg/injection, schedule: Q04DX003 (ip), vehicle: acid diluted with saline): 171 % of control

S=C(NCNC(=S)c1ccncc1)c1ccncc1
T/C (dose: 300.0 mg/kg/injection, schedule: Q04DX003 (ip), vehicle: saline with Tween-80): 97 % of control
T/C (dose: 600.0 mg/kg/injection, schedule: Q04DX003 (ip), vehicle: saline with Tween-80): 40 % of control

CC(C)(C[NH-])C[NH-].[Cl][Pt+2][Cl]
T/C (dose: 1.5 mg/kg/injection, schedule: Q04DX003 (ip), vehicle: water): 56 % of control
T/C (dose: 6.0 mg/kg/injection, schedule: Q04DX003 (ip), vehicle: water): 2 % of control and 3 % of control

CCCSc1nc(COC(=O)NC)c(COC(=O)NC)n1C
T/C (dose: 30.0 mg/kg/injection, schedule: Q04DX003 (ip), vehicle: saline): 74 % of control
T/C (dose: 60.0 mg/kg/injection, schedule: Q04DX003 (ip), vehicle: saline): 76 % of control
T/C (dose: 120.0 mg/kg/injection, schedule: Q04DX003 (ip), vehicle: saline): 70 % of control
T/C (dose: 240.0 mg/kg/injection, schedule: Q04DX003 (ip), vehicle: saline): 26 % of control

CC(=O)c1c(O)c(C)c(O)c2c1OC1=CC(=O)C(C(C)=O)C(=O)C12C (configuration not stated)
T/C (dose: 200.0 mg/kg/injection, schedule: Q01DX010 (sc), vehicle: sodium bicarbonate): 96 % of control
T/C (dose: 400.0 mg/kg/injection, schedule: Q01DX010 (sc), vehicle: sodium bicarbonate): 72 % of control

O=C1CN(CCN2CC(=O)N(CN3CCOCC3)C(=O)C2)CC(=O)N1CN1CCOCC1
T/C (dose: 150.0 mg/kg/injection, schedule: Q04DX003 (ip), vehicle: water): 56 % of control
T/C (dose: 300.0 mg/kg/injection, schedule: Q04DX003 (ip), vehicle: water): 58 % of control

O=C(Nc1ccccc1)c1c(O)[nH]c(=O)[nH]c1=O
T/C [6]: 102 % of control
T/C [7]: 71 % of control
T/C (dose: 400.0 mg/kg/injection, schedule: Q04DX003 (ip), vehicle: saline with Tween-80): 57 % of control

[NH-]C(CCC(N)=O)C(=O)O.[NH-]C(CCC(N)=O)C(=O)O.[Zn+2] (configuration not stated)
T/C [1]: 97 % of control

COc1cc(C2CC(C)(O)Oc3cc4c(cc32)OCO4)cc(OC)c1OC (configuration not stated)
T/C (dose: 25.0 mg/kg/injection, schedule: Q04DX003 (ip), vehicle: saline with Tween-80): 86 % of control
T/C (dose: 50.0 mg/kg/injection, schedule: Q04DX003 (ip), vehicle: saline with Tween-80): 75 % of control
T/C [6]: 73 % of control and 74 % of control
T/C [7]: 46 % of control

CCN(CC)CCn1[nH]c2c3ccc(=O)cc3sc3c(NCCN)ccc1c32
T/C (dose: 3.12 mg/kg/injection, schedule: Q04DX003 (ip), vehicle: water): 26 % of control and 40 % of control
T/C (dose: 6.25 mg/kg/injection, schedule: Q04DX003 (ip), vehicle: water): 35 % of control and 38 % of control and 42 % of control
T/C (dose: 25.0 mg/kg/injection, schedule: Q04DX003 (ip), vehicle: water): 50 % of control

CO[C@H](/C(C)=C/C=C/C(C)=C/c1coc(C)n1)[C@H](C)[C@H]1C[C@@H](O)[C@@]2(C)O[C@H]2/C=C/[C@@H](C)[C@@H]2C[C@@H](CC(=O)O2)C[C@H]2O[C@@H]2C(=O)O1
T/C (dose: 0.13 mg/kg/injection, schedule: Q04DX003 (ip), vehicle: other): 62 % of control
T/C (dose: 0.2 mg/kg/injection, schedule: Q04DX003 (ip), vehicle: other): 67 % of control
T/C (dose: 0.25 mg/kg/injection, schedule: Q04DX003 (ip), vehicle: Klucel (hydroxypropylcellulose) (HPC)): 10 % of control
T/C (dose: 0.25 mg/kg/injection, schedule: Q04DX003 (sc), vehicle: Klucel (hydroxypropylcellulose) (HPC)): 46 % of control and 55 % of control and 63 % of control
T/C (dose: 0.3 mg/kg/injection, schedule: Q04DX003 (ip), vehicle: other): 55 % of control
T/C (dose: 0.44 mg/kg/injection, schedule: Q04DX003 (ip), vehicle: other): 27 % of control
T/C (dose: 0.5 mg/kg/injection, schedule: Q04DX003 (ip), vehicle: Klucel (hydroxypropylcellulose) (HPC)): 7 % of control
T/C (dose: 0.5 mg/kg/injection, schedule: Q04DX003 (sc), vehicle: Klucel (hydroxypropylcellulose) (HPC)): 35 % of control and 36 % of control and 41 % of control
T/C (dose: 1.0 mg/kg/injection, schedule: Q04DX003 (ip), vehicle: Klucel (hydroxypropylcellulose) (HPC)): 5 % of control
T/C (dose: 1.0 mg/kg/injection, schedule: Q04DX003 (sc), vehicle: Klucel (hydroxypropylcellulose) (HPC)): 4 % of control and 19 % of control

CC1=C/C(O)CC(=O)Cc2nc(co2)C(=O)N2CCC=C2C(=O)OC(C(C)C)C(C)/C=C\C(=O)NC/C=C\1 (configuration not stated)
T/C (dose: 600.0 mg/kg/injection, schedule: Q04DX003 (sc), vehicle: Klucel (hydroxypropylcellulose) (HPC)): 104 % of control
T/C (dose: 1200.0 mg/kg/injection, schedule: Q04DX003 (sc), vehicle: Klucel (hydroxypropylcellulose) (HPC)): 92 % of control
T/C (dose: 2400.0 mg/kg/injection, schedule: Q04DX003 (sc), vehicle: Klucel (hydroxypropylcellulose) (HPC)): 88 % of control

NC(=S)N/N=C/c1cc(=O)c2cc(Cl)ccc2o1
T/C [2]: 117 % of control
T/C (dose: 300.0 mg/kg/injection, schedule: Q04DX003 (ip), vehicle: other): 103 % of control
T/C [3]: 117 % of control
T/C [4]: 106 % of control

O=C(O)CC(NC(=O)CP(=O)(O)O)C(=O)O (configuration not stated)
T/C (dose: 50.0 mg/kg/injection, schedule: Q01DX010 (sc), vehicle: saline): 36 % of control
T/C (dose: 100.0 mg/kg/injection, schedule: Q01DX010 (sc), vehicle: saline): 16 % of control
T/C (dose: 200.0 mg/kg/injection, schedule: Q01DX010 (sc), vehicle: saline): 5 % of control

COc1cccc(Sc2ccc([N+](=O)[O-])c3no[n+]([O-])c23)c1
T/C [5]: 69 % of control and 86 % of control
T/C (dose: 30.0 mg/kg/injection, schedule: Q04DX003 (ip), vehicle: saline with Tween-80): 124 % of control
T/C (dose: 480.0 mg/kg/injection, schedule: Q04DX003 (ip), vehicle: saline with Tween-80): 36 % of control and 41 % of control and 50 % of control

Cc1cc2c(=O)cc(-c3ccccc3)oc2c(C(=O)O)c1C
T/C (dose: 125.0 mg/kg/injection, schedule: Q04DX003 (ip), vehicle: saline with Tween-80): 109 % of control
T/C (dose: 250.0 mg/kg/injection, schedule: Q04DX003 (ip), vehicle: saline with Tween-80): 99 % of control

CCc1nc(N)nc(N)c1-c1ccc(Cl)c(N=[N+]=[N-])c1
T/C (dose: 67.0 mg/kg/injection, schedule: Q04DX003 (ip), vehicle: water): 85 % of control
